# Assay results from publication PMC7464159, “Triple Negative Breast Cancer and Breast Epithelial Cells Differentially Reprogram Glucose and Lipid Metabolism upon Treatment with Triterpenic Acids” (Biomolecules, 2020).
# System: MCF-10A cells
# Assay: 1H NMR metabolomics of polar (aqueous) cell extracts
# Assay type: cell-based, human
# Details: for number of metabolites altered: 48 h
# Protocol: MDA-MB-231 and MCF-10A cells were seeded in 10-cm-diameter Petri dishes at a density of 6 × 10^5 cells/mL (10 mL per dish) and cultured for 24 h at 37 °C. […] Vehicle solvent control cells received DMSO (0.10% v/v). Samples were collected immediately after 48 h incubation or, to assess cellular recovery, medium was replaced with fresh growth medium (without TAs), and cells were incubated for additional 24 h before collection (48 + 24 h samples). Four independent assays were performed.
# After incubation, culture medium was collected and centrifuged (1000× g, 5 min) and the supernatant stored at −80 °C until analysis. Culture medium without cells was placed under the same conditions and collected. Cell extraction was performed as described by Carrola et al.. Briefly, cells were washed four times with PBS and extracted with a mixture of methanol:chloroform:water (1:1:0.7). The resulting polar and organic phases were collected and then dried under vacuum or under a stream of nitrogen gas, respectively. All samples were stored at −80 °C and, at the time of analysis, dried polar extracts were reconstituted in 600 µL of deuterated phosphate buffer (100 mM, pH 7.4) containing 0.1 mM TSP-d4, while organic extracts were reconstituted in deuterated chloroform containing 0.03% TMS. Regarding medium samples, 540 μL were mixed with 60 μL of D2O containing 0.25% TSP-d4. Prior to analysis, 550 μL of each sample were transferred to 5 mm NMR tubes.
# ^1H NMR spectra of all samples were acquired on a Bruker Avance III HD 500 NMR spectrometer (University of Aveiro, Portuguese NMR Network) operating at 500.13 MHz for ^1H observation equipped with a 5 mm TXI probe. Standard 1D spectra (Bruker pulse programs ‘noesypr1d’, with water suppression, for medium samples and aqueous extracts, and ‘zg’ for organic extracts) were recorded with a 7002.8 Hz spectral width, 32 k data points, a 2 s relaxation delay and 512 scans. Spectral processing comprised exponential multiplication with 0.3 Hz line broadening, zero filling to 64 k data points, manual phasing, baseline correction, and chemical shift calibration to the TSP or TMS signal at 0 ppm. 2D ^1H-^1H total correlation (TOCSY) spectra, ^1H-^13C heteronuclear single quantum correlation (HSQC) spectra and J-resolved spectra were also registered for selected samples to assist spectral assignment. Metabolites were identified with the support of 2D spectra and the spectral reference databases BBIOREFCODE-2-0-0 (Bruker Biospin, Rheinstetten, Germany) and HMDB [28]. Selected signals were then integrated using the AmixViewer software […] (version 3.9.14, Bruker BioSpin, Rheinstetten, Germany) and normalized by the total spectral area. The magnitude of each metabolite change was assessed through the percentage of variation (and its respective error) in exposed samples relatively to controls, and through the effect size (ES) adjusted for small sample numbers (and respective standard error). Metabolite variations with absolute ES greater than 0.8 were expressed in a heatmap, colored as a function of the percentage of variation, employing the R statistical software.
smiles,measurement,setting,value
"C[C@H]1[C@H](C)CC[C@]2(C(=O)O)CC[C@]3(C)C(=CC[C@@H]4[C@@]5(C)CC[C@H](O)C(C)(C)[C@@H]5CC[C@]43C)[C@H]12 [UA, ursolic acid]",1-MethyInicotinamide %var,"UA 10µM, 48h",38.46%
same,3-Hydroxyisobutyrate %var,"UA 10µM, 48h",-23.71%
same,ATP %var,"UA 10µM, 48h",41.52%
same,Acetate %var,"UA 10µM, 48h",0%
same,Ala %var,"UA 10µM, 48h",44.32%
same,Asp %var,"UA 10µM, 48h",-38.30%
same,Choline %var,"UA 10µM, 48h",31.99%
same,Citrate %var,"UA 10µM, 48h",-36.91%
same,Cr %var,"UA 10µM, 48h",-16.76%
same,Dimethylamine %var,"UA 10µM, 48h",-53.26%
same,Formate %var,"UA 10µM, 48h",0%
same,Fumarate %var,"UA 10µM, 48h",0%
same,GPC %var,"UA 10µM, 48h",108.51%
same,GSH %var,"UA 10µM, 48h",-30.60%
same,Gln %var,"UA 10µM, 48h",0%
same,Glu %var,"UA 10µM, 48h",-21.17%
same,Glucose %var,"UA 10µM, 48h",-71.26%
same,Glucose-1-phosphate %var,"UA 10µM, 48h",-75.94%
same,Gly %var,"UA 10µM, 48h",40.31%
same,His %var,"UA 10µM, 48h",0%
same,Ile %var,"UA 10µM, 48h",211.80%
same,Lactate %var,"UA 10µM, 48h",0%
same,Leu %var,"UA 10µM, 48h",389.84%
same,NADH %var,"UA 10µM, 48h",34.09%
same,PC %var,"UA 10µM, 48h",-26.30%
same,PCr %var,"UA 10µM, 48h",34.32%
same,Phe %var,"UA 10µM, 48h",22.52%
same,Pro %var,"UA 10µM, 48h",87.39%
same,Tyr %var,"UA 10µM, 48h",0%
same,UDP-GalNAc %var,"UA 10µM, 48h",62.26%
same,UDP-GlcNAc %var,"UA 10µM, 48h",60.69%
same,UDP-Glucose %var,"UA 10µM, 48h",-19.78%
same,Val %var,"UA 10µM, 48h",151.36%
same,myo -Lno %var,"UA 10µM, 48h",-13.14%
same,1-MethyInicotinamide %var,"UA 10µM, 48h+24h",22.91%
same,3-Hydroxyisobutyrate %var,"UA 10µM, 48h+24h",-22.77%
same,ATP %var,"UA 10µM, 48h+24h",0%
same,Acetate %var,"UA 10µM, 48h+24h",0%
same,Ala %var,"UA 10µM, 48h+24h",0%
same,Asp %var,"UA 10µM, 48h+24h",-26.58%
same,Choline %var,"UA 10µM, 48h+24h",0%
same,Citrate %var,"UA 10µM, 48h+24h",-18.09%
same,Cr %var,"UA 10µM, 48h+24h",0%
same,Dimethylamine %var,"UA 10µM, 48h+24h",-15.34%
same,Formate %var,"UA 10µM, 48h+24h",0%
same,Fumarate %var,"UA 10µM, 48h+24h",-22.45%
same,GPC %var,"UA 10µM, 48h+24h",-32.45%
same,GSH %var,"UA 10µM, 48h+24h",-27.29%
same,Gln %var,"UA 10µM, 48h+24h",16.14%
same,Glu %var,"UA 10µM, 48h+24h",0%
same,Glucose %var,"UA 10µM, 48h+24h",-31.96%
same,Glucose-1-phosphate %var,"UA 10µM, 48h+24h",0%
same,Gly %var,"UA 10µM, 48h+24h",24.70%
same,His %var,"UA 10µM, 48h+24h",0%
same,Ile %var,"UA 10µM, 48h+24h",58.71%
same,Lactate %var,"UA 10µM, 48h+24h",0%
same,Leu %var,"UA 10µM, 48h+24h",82.57%
same,NADH %var,"UA 10µM, 48h+24h",20.35%
same,PC %var,"UA 10µM, 48h+24h",-38.35%
same,PCr %var,"UA 10µM, 48h+24h",24.82%
same,Phe %var,"UA 10µM, 48h+24h",16.59%
same,Pro %var,"UA 10µM, 48h+24h",49.66%
same,Tyr %var,"UA 10µM, 48h+24h",13.28%
same,UDP-GalNAc %var,"UA 10µM, 48h+24h",0%
same,UDP-GlcNAc %var,"UA 10µM, 48h+24h",0%
same,UDP-Glucose %var,"UA 10µM, 48h+24h",0%
same,Val %var,"UA 10µM, 48h+24h",47.98%
same,myo -Lno %var,"UA 10µM, 48h+24h",0%
same,1-MethyInicotinamide %var,"UA 20µM, 48h",83.24%
same,3-Hydroxyisobutyrate %var,"UA 20µM, 48h",-30.93%
same,ATP %var,"UA 20µM, 48h",53.13%
same,Acetate %var,"UA 20µM, 48h",0%
same,Ala %var,"UA 20µM, 48h",0%
same,Asp %var,"UA 20µM, 48h",-46.10%
same,Choline %var,"UA 20µM, 48h",30.58%
same,Citrate %var,"UA 20µM, 48h",-38.52%
same,Cr %var,"UA 20µM, 48h",0%
same,Dimethylamine %var,"UA 20µM, 48h",-41.93%
same,Formate %var,"UA 20µM, 48h",0%
same,Fumarate %var,"UA 20µM, 48h",0%
same,GPC %var,"UA 20µM, 48h",160.13%
same,GSH %var,"UA 20µM, 48h",-21.64%
same,Gln %var,"UA 20µM, 48h",0%
same,Glu %var,"UA 20µM, 48h",-23.01%
same,Glucose %var,"UA 20µM, 48h",-85.89%
same,Glucose-1-phosphate %var,"UA 20µM, 48h",-78.61%
same,Gly %var,"UA 20µM, 48h",38.29%
same,His %var,"UA 20µM, 48h",0%
same,Ile %var,"UA 20µM, 48h",156.93%
same,Lactate %var,"UA 20µM, 48h",0%
same,Leu %var,"UA 20µM, 48h",297.70%
same,NADH %var,"UA 20µM, 48h",46.21%
same,PCr %var,"UA 20µM, 48h",0%
same,Phe %var,"UA 20µM, 48h",0%
same,Pro %var,"UA 20µM, 48h",69.18%
same,Tyr %var,"UA 20µM, 48h",0%
same,UDP-GalNAc %var,"UA 20µM, 48h",68.87%
same,UDP-GlcNAc %var,"UA 20µM, 48h",61.45%
same,UDP-Glucose %var,"UA 20µM, 48h",-32.23%
same,Val %var,"UA 20µM, 48h",101.22%
same,myo -Lno %var,"UA 20µM, 48h",0%
same,1-MethyInicotinamide %var,"UA 20µM, 48h+24h",50.44%
same,3-Hydroxyisobutyrate %var,"UA 20µM, 48h+24h",-30.69%
same,ATP %var,"UA 20µM, 48h+24h",0%
same,Acetate %var,"UA 20µM, 48h+24h",10.61%
same,Ala %var,"UA 20µM, 48h+24h",0%
same,Asp %var,"UA 20µM, 48h+24h",-37.26%
same,Choline %var,"UA 20µM, 48h+24h",0%
same,Citrate %var,"UA 20µM, 48h+24h",-32.19%
same,Cr %var,"UA 20µM, 48h+24h",28.29%
same,Dimethylamine %var,"UA 20µM, 48h+24h",-23.93%
same,Formate %var,"UA 20µM, 48h+24h",0%
same,Fumarate %var,"UA 20µM, 48h+24h",-34.69%
same,GPC %var,"UA 20µM, 48h+24h",0%
same,GSH %var,"UA 20µM, 48h+24h",-26.66%
same,Gln %var,"UA 20µM, 48h+24h",25.50%
same,Glu %var,"UA 20µM, 48h+24h",-11.32%
same,Glucose %var,"UA 20µM, 48h+24h",-67.35%
same,Glucose-1-phosphate %var,"UA 20µM, 48h+24h",-40.85%
same,Gly %var,"UA 20µM, 48h+24h",31.50%
same,His %var,"UA 20µM, 48h+24h",0%
same,Ile %var,"UA 20µM, 48h+24h",94.71%
same,Lactate %var,"UA 20µM, 48h+24h",0%
same,Leu %var,"UA 20µM, 48h+24h",130.47%
same,NADH %var,"UA 20µM, 48h+24h",55.81%
same,PC %var,"UA 20µM, 48h+24h",-38.16%
same,PCr %var,"UA 20µM, 48h+24h",0%
same,Phe %var,"UA 20µM, 48h+24h",27.29%
same,Pro %var,"UA 20µM, 48h+24h",78.81%
same,Tyr %var,"UA 20µM, 48h+24h",21.23%
same,UDP-GalNAc %var,"UA 20µM, 48h+24h",0%
same,UDP-GlcNAc %var,"UA 20µM, 48h+24h",0%
same,UDP-Glucose %var,"UA 20µM, 48h+24h",-20.07%
same,Val %var,"UA 20µM, 48h+24h",70.45%
same,myo -Lno %var,"UA 20µM, 48h+24h",0%
same,number of metabolites altered,UA high concentration,22
same,number of metabolites altered,UA low concentration,27
